Data from patent US20120065198A2, “Detection and Treatment of Schizophrenia” (Tokai University Educational System, priority 2007, published 2012).

Experiments:
pentosidine formation [1] = experiment: Inhibitory effect on AGEs (pentosidine) formation in serum of renal failure patients; assay type: biochemical, human; conditions: final concentration 5 mM, 1 week at 37° C.; for Pentosidine Formation Ratio (%): control as 100%; for AGE Formation Inhibition Ratio (%): determined from the pentosidine formation ratio
Method: To 450 μl of protein (serum of renal failure patients with an informed consent) was added 50 μl of a solution of each test compound in dimethylsulfoxide (final concentration: 5 mM), and the resulting mixture was incubated for 1 week at 37° C. The quantity of pentosidine, which is one of the AGEs formed, was subsequently measured as follows.
First, in order to release the pentosidine formed in the protein, 50 μl of 10% trichloroacetic acid was added to 50 μl of the reacted sample, and the mixture was centrifuged to precipitate the protein that was then collected. The collected protein was washed with 300 μl of 5% trichloroacetic acid and dried; 100 μl of 6 N hydrochloric acid was subsequently added, and hydrolysis was performed for 16 hours at 110° C. The quantity of pentosidine (nmol/l) formed was measured by HPLC using a fluorescence detector (ODS C18, 4.6×250 mm, 335 nm, 385 nm), according to a gradient method (30 minutes, 1.0 ml/min) using a mobile phase of distilled water containing 0.1% trifluoroacetic acid/80% acetonitrile containing 0.08% trifluoroacetic acid (Miyata, T et al.,: J. Am. Soc., Nephrol., 7, 1198-1206, 1996; Miyata, T., et al., Proc. Natl. Acad. Sci., USA, 93 2353-2358, 1996).
In order to evaluate the inhibitory effect of each test compound on AGE formation, the proportion of the quantity of pentosidine formed was calculated as the ratio (%) of pentosidine formation relative to the quantity of pentosidine formed with a control as 100%. Further, from the calculated value, the ratio of inhibition of pentosidine formation (the ratio (%) of inhibition of AGE formation) was also determined.

pentosidine formation [2] = experiment: Inhibitory activity on pentosidine formation, samples incubated with BSA and arabinose; assay type: biochemical; conditions: incubated with BSA and arabinose instead of patient plasma; for Pentosidine Formation Ratio (%) at 5 Concentration: Table 13
Method: Plasma was collected from hemodialysis patients prior to dialysis with the patients' consent, and the plasma was filtered and sterilized. To the plasma (450 μL) was added solutions of TM-2002 in dimethylsulfoxide (50 μL) (final concentrations: 0.8, 2.0, and 5.0 mM), and the mixtures were incubated for 1 week at 37° C. The levels of the pentosidine formation were measured.
Pentosidine was measured as follows. To each sample (50 μL) after incubation was added an equal volume of 10% trichloroacetic acid, and the mixture was subsequently centrifuged at 5,000 g for 5 minutes. After the supernatant was removed, the pellet was washed with 5% trichloroacetic acid (300 μL). The pellet was dried under reduced pressure, and subsequently hydrolyzed in a 6N HCl solution (100 μL) under a nitrogen atmosphere for 16 hours at 110° C. To the acid hydrolysate was then added 5N NaOH (100 μL) and 0.5 M phosphate buffer (pH 7.4) (200 μL); the mixture was subsequently filtered through a micropore filter with 0.5 μm pores and diluted with PBS. The concentration of the released pentosidine was measured by reverse-phase HPLC using a fluorescence detector (RF-10A, Shimadzu Corporation) (Miyata, T. et al.; Proc. Natl. Acad. Sci. USA, Vol. 93, p. 2353-2358, 1996). The effluent was monitored at the excitation/emission wavelength of 335/385 nm. Synthetic pentosidine was used as the reference material. The detection limit of pentosidine was 0.1 pmol/mg protein.
(2) Other edaravone analogues (Compounds (1) or (2)) were investigated for their inhibitory activities on pentosidine formation in the same manner as in Section (1) above, except that the samples were incubated with BSA and arabinose instead of the patient plasma. In the tables, “-” means that the test was not conducted.

Compound	Pentosidine Formation Ratio (%) (pentosidine formation [1])	AGE Formation Inhibition Ratio (%) (pentosidine formation [1])	Pentosidine Formation Ratio (%) at 5 mM Drug Concentration (pentosidine formation [2]) [%]	Pentosidine Formation Ratio (%) at 5 Concentration (pentosidine formation [2]) [%]
CCC1C(=O)N(c2ccc(Cl)cc2)N=C1C (stereo not shown) [(18)]	18.0	82.0	–	–
NC1=NN(c2ccccc2)C(=O)C1C(=O)C(=O)Nc1ccccc1 (stereo not shown) [(1)]	18.1	81.9	–	–
CC(=O)NC1C(=O)N(c2ccccc2)N=C1C (stereo not shown) [(8)]	23.5	76.5	–	–
CCCC1=NN(c2ccccc2)C(=O)C1CC(=O)c1ccccc1 (stereo not shown) [(20)]	12.4	87.6	–	–
NC1=NN(c2ccccc2)C(=O)C1Sc1nnnn1-c1ccccc1 (stereo not shown) [(6)]	16.8	83.2	–	–
CC1=NN(c2cccc([N+](=O)[O-])c2)C(=O)C1Sc1nnnn1-c1ccccc1 (stereo not shown) [(13)]	45.4	54.6	–	–
CC1=NN(c2ccccc2)C(=O)C1C1C(=O)N(c2ccccc2)N=C1C (stereo not shown) [(17)]	35.0	65.0	–	–
CC1=NN(c2ccccc2)C(=O)C1NS(=O)(=O)c1ccc(C)cc1 (stereo not shown) [(11)]	24.9	75.1	–	–
CC1=NN(c2cccc(F)c2)C(=O)/C1=C\c1ccc(N(C)C)cc1 [compound 35, 4-(4-dimethylamino-benzylidene)-2-(3-fluoro-phenyl)-5-methyl-2,4-dihydro-pyrazol-3-one]	–	–	76.31	–
COc1cc(/C=C2\C(=O)N(c3ccc(Cl)cc3)N=C2C(F)(F)F)ccc1O [compound 47, 2-(4-chloro-phenyl)-4-(4-hydroxy-3-methoxy-benzylidene)-5-trifluoromethyl-2,4-dihydro-pyrazol-3-one]	–	–	28.86	–
CC1=NN(c2ccccc2)C(=O)C1C(c1ccccc1)c1c(C)nn(-c2ccccc2)c1O (stereo not shown) [(9)]	30.8	69.2	–	–
NC1=NN(c2ccccc2)C(=O)C1C(=O)C(=O)Nc1nccs1 (stereo not shown) [(2)]	26.1	73.9	–	–
CC1=NN(c2ccc(F)cc2)C(=O)/C1=C\c1c(C)nn(-c2ccccc2C)c1O [compound 46, 2-(4-fluoro-phenyl)-4-(5-hydroxy-3-methyl-1-o-toluyl-1H-pyrazol-4-ylmethylene)-5-methyl-2,4-dihydro-pyrazol-3-one]	–	–	15.69	–
CC1=NN(c2ccccc2)C(=O)C1C1C(=O)N(c2ccccc2)N=C1C (stereo not shown) [compound 17, 5,5′-dimethyl-2,2′-diphenyl-2,4,2′,4′-tetrahydro [4,4′]bipyrazole-3,3′-dione]	–	–	60.96	–
CC1=NN(c2ccccc2)C(=O)/C1=C/c1ccc(Cl)cc1 [compound 67]	–	–	9.09	–
O=C(NC1=NN(c2ccccc2)C(=O)C1Sc1nnnn1-c1ccccc1)c1ccccc1 (stereo not shown) [(14)]	22.1	77.9	–	–
CC1=NN(c2ccc(S(N)(=O)=O)cc2)C(=O)/C1=C/c1ccc(O)cc1 [compound 49, 4-[4-(4-hydroxy-benzylidene)-3-methyl-5-oxo-4,5-dihydro-pyrazol-1-yl]-benzenesulfonamide]	–	–	7.09	–

Compound	Pentosidine Formation Ratio (%) (pentosidine formation [1])	AGE Formation Inhibition Ratio (%) (pentosidine formation [1])	Pentosidine Formation Ratio (%) at 5 mM Drug Concentration (pentosidine formation [2]) [%]	Pentosidine Formation Ratio (%) at 5 Concentration (pentosidine formation [2]) [%]
O=C1C2CCCC2=NN1c1ccccc1 (stereo not shown) [(10)]	18.0	82.0	–	–
CC1=NN(c2ccc(N)cc2)C(=O)C1CCO (stereo not shown) [(5)]	9.33	90.67	–	–
C/C(=N\O)C1C(=O)N(c2ccccc2)N=C1c1ccccc1 (stereo not shown) [(16)]	25.8	74.2	–	–
O=C(NC1=NN(c2ccccc2)C(=O)C1Sc1nnnn1-c1ccccc1)c1ccccc1 (stereo not shown) [compound 14, N-[5-oxo-1-phenyl-4-(1-phenyl-1H-tetrazol-5-ylsulfanyl)-4,5-dihydro-1H-pyrazol-3-yl]-benzamide]	–	–	61.27	–
Cc1ncc2c(c1O)C(c1c(C)nn(-c3ccccc3)c1O)OC2.Cl (stereo not shown) [compound 69, 1-(5-hydroxy-3-methyl-1-phenyl-1H-pyrazol-4-yl)-6-methyl-1,3-dihydro-furo [3,4-c]pyridin-7-ol]	–	–	–	2.94
CC1=NN(c2cccc(Cl)c2)C(=O)/C1=C/c1ccc(O)cc1 [compound 71, 2-(3-chloro-phenyl)-4-(4-hydroxy-benzylidene)-5-methyl-2,4-dihydropyrazol-3-one]	–	–	–	4.63
CC1=NN(c2ccccc2)C(=O)C1CCC(=O)O (stereo not shown) [(7)]	27.2	72.8	–	–
O=C1/C(=C\c2ccc(O)cc2)C(C(F)(F)F)=NN1c1ccccc1 [compound 53, 4-(4-hydroxy-benzylidene)-2-phenyl-5-trifluoromethyl-2,4-dihydro-pyrazol-3-one]	–	–	66.76	–
CC1=NN(c2ccccc2)C(=O)C1(O)S(=O)(=O)[O-].[Na+] (stereo not shown) [compound 25, sodium 4-hydroxy-3-methyl-5-oxo-1-phenyl-4,5-dihydro-1H-pyrazole-4-sulfonate]	–	–	38.80	–
O=C(NC1=NN(c2ccccc2)C(=O)C1(O)S(=O)(=O)[O-])c1ccccc1.[Na+] (stereo not shown) [compound 27, Sodium 3-benzoylamino-4-hydroxy-5-oxo-1-phenyl-4,5-dihydro-1H-pyrazole-4-sulfonate]	–	–	2.83	–
COC(=O)c1cccc(-c2ccc(/C=C3\C(=O)N(c4ccc(S(C)(=O)=O)cc4)N=C3C)o2)c1 [compound 39]	–	–	16.87	–
CC(=O)NC1C(=O)N(c2ccccc2)N=C1C (stereo not shown) [compound 12, N-(3-methyl-5-oxo-1-phenyl-4,5-dihydro-1H-pyrazol-4-yl)-acetamide]	–	–	54.21	–
CC1=NN(c2ccc(C)cc2)C(=O)/C1=C/c1ccc(O)c(O)c1 [compound 44, 4-(3,4-dihydroxy-benzylidene)-5-methyl-2-p-toluyl-2,4-dihydro-pyrazol-3-one]	–	–	66.19	–
CC1=NN(c2ccc(Cl)cc2)C(=O)/C1=C/c1cccc(O)c1 [compound 43, 2-(4-chloro-phenyl)-4-(3-hydroxy-benzylidene)-5-methyl-2,4-dihydropyrazol-3-one]	–	–	3.00	–
CC1=NN(c2ccccc2)C(=O)/C1=C/c1ccc(OCc2ccccc2)cc1 [compound 72, 4-(4-benzyloxy-benzylidene)-5-methyl-2-phenyl-2,4-dihydropyrazol-3-one]	–	–	–	7.63
CC1=NN(c2ccccc2)C(=O)C1C(c1ccccc1)c1c(C)nn(-c2ccccc2)c1O (stereo not shown) [compound 9, 4-[(5-hydroxy-3-methyl-1-phenyl-1H-pyrazol-4-yl)-phenyl-methyl]-5-methyl-2-phenyl-2,4-dihydro-pyrazol-3-one]	–	–	7.52	–
CC1=NN(c2cccc(Cl)c2)C(=O)/C1=C/c1cc2ccccc2[nH]c1=O [compound 38, 3-[1-(3-chloro-phenyl)-3-methyl-5-oxo-1,5-dihydro-pyrazol-4-ylidenemethyl]-1H-quinolin-2-one]	–	–	84.95	–
